Data reported in patent US20160215348A1, “GENE EXPRESSION BIOMARKERS AND THEIR USE FOR DIAGNOSTIC AND PROGNOSTIC APPLICATION IN PATIENTS POTENTIALLY IN NEED OF HDAC INHIBITOR TREATMENT” (4SC AG, priority 2013, published 2016).

Experiments:
[1] = tested on: ZFP64; test: ZFP64 gene expression in diverse cancer cell lines (FIG. 4c); assay type: cell-based; details: 10 μM; 0, 2, 5 and 24 hours
From the text: (§1) To determine RNA expression levels of ZFP64 in different cancer cell lines and PBMC, the cell membranes were chemically disrupted with a buffer containing guanidine isothiocycanate, which lyses the cells and supports the binding of RNA to a silica membrane and RNA was extracted via a filter-based spin column.

[2] = tested on: MICALL1; test: Gene expression in peripheral blood of healthy donors treated ex vivo; assay type: cell-based, human; details: standardized to 0 h
Experimental: (§2) Hatched columns relate to blood, black columns relate to HepG2 cells, white boxes relate to HT 29 cells. Values are standardized to the value at 0 h.
(§3) Samples were obtained and gene expressions were determined with the methods as described herein below. The results are shown in below table 3 and FIGS. 2 and 3
(§4) The above values represent a mean value which was determined on the basis of 2 biological replicates, for each of which 3 technical replicates were prepared. […] The level of gene expression determined in peripheral blood samples can be correlated with a certain level of activity of HDAC in the diseased cells, e.g. by applying an appropriate conversion factor or conversion table, which may be determined for each specific disease, and/or patient group.
(§5) The High-Capacity cDNA Reverse Transcription Kit (Applied Biosystems) was used for reverse transcription of total RNA into single stranded cDNA with the aid of random hexamer primers according to the manufacturer's instructions. Briefly, for the reaction mix total RNA was mixed with random primers in excess, 4 mM dNTP Mix, 2.5 U/reaction, reverse transcriptase and nuclease free water. The reverse transcription took place in a thermal cycler under the following conditions: 25° C. for 10 min, 37° C. for 120 min, 85° C. for 5 min, followed by 4° C. for cooling down the reaction. The reverse transcription can be done in principle as well with other reverse transcriptases, primers and temperature protocols. Whenever possible, 250 ng total RNA were reverse transcribed if not available, lower amounts were used.
(§6) Custom TaqMan® Arrays (Applied Biosystems) in Format 16 were designed for the gene expression analysis of biomarkers of the present invention and housekeeping genes as outlined in table 4. These arrays allow for qPCR analysis of 8 samples per card. Of course, all reactions can be done as well by conventional qPCR analysis with specific primers.

[3] = tested on: HIST2H4A/B; test: as above; assay type: cell-based, human; details: standardized to 0 h
Experimental: as §2, §3, §4, §5, §6

[4] = tested on: DPP3; test: as above; assay type: cell-based, human; details: standardized to 0 h
Experimental: as §2, §3, §4, §5, §6

[5] = tested on: 18S; test: as above; assay type: cell-based, human; details: standardized to 0 h
Experimental: as §2, §3, §4, §5, §6

[6] = tested on: CCDC43; test: as above; assay type: cell-based, human; details: standardized to 0 h
Experimental: as §2, §3, §4, §5, §6

[7] = tested on: ZFP64; test: as above; assay type: cell-based, human; details: standardized to 0 h
Experimental: as §2, §3, §4, §5, §6

[8] = tested on: TBP; test: as above; assay type: cell-based, human; details: standardized to 0 h
Experimental: as §2, §3, §4, §5, §6

[9] = tested on: GAPDH; test: as above; assay type: cell-based, human; details: standardized to 0 h
Experimental: as §2, §3, §4, §5, §6

[10] = tested on: KDELC2; test: as above; assay type: cell-based, human; details: standardized to 0 h
Experimental: as §2, §3, §4, §5, §6

[11] = tested on: Histone H3; test: Nuclear protein extraction and Western blot, HepG2 cells (nuclear loading control); assay type: cell-based, human; details: 5 μM, 24 h, vs 0.1% DMSO
Experimental: (§7) After isolating nuclear fractions, ZFP64 protein levels were detected by Western Blot analysis. Histone H3 serves as nuclear loading control.
(§8) 4 h upon seeding, HepG2 cells were treated with either 0.1% DMSO or 5 μM resminostat.
(§9) 24 h upon resminostat treatment, cells were washed once with PBS before scraping and harvesting in cold PBS and transferring the cells into pre-chilled 15 ml falcon tubes. […]
(§10) From each nuclear sample 4.4 μg protein (measured via BCA protein assay) were added to the same amount of Tricine buffer (supplemented with B-Mercaptoethanol), heated at 95° C. for 5 min and then placed on ice. […]
(§11) The next day, after washing four times with Washing Buffer, membranes were incubated for 1 h with the corresponding horseradish peroxidase-conjugated anti-rabbit IgG secondary antibody at a dilution of 1/50.000 and anti-Biotin at a dilution of 1/1.000 (diluted in 10 ml 1/10 diluted SuperBlock T20 Blocking Buffer). After washing four times with Washing Buffer, HRP signals were detected using enhanced chemoluminescence and exposed to X-ray films. Subsequently, the films were scanned using the Gel Doc 2000 and the corresponding signals were quantified with the “Quantity One” Software (BioRad).

[12] = tested on: ZFP64; test: ZFP64 fold change in HepG2, whole blood and PBMCs of a healthy donor (FIG. 4d); assay type: cell-based, human; details: HepG2, whole blood, PBMC; resminostat 5 μM (combination: + sorafenib 5 μM); vs DMSO control
Experimental: For comparison reasons, the siRNA experiment (ZFP64 knockdown) on HepG2 cells is shown. The samples are compared to a DMSO control and the fold change is determined with the exception of the siRNA samples, which are compared to the resminostat sample.
as §1

[13] = tested on: ZFP64; test: Nuclear protein extraction and Western blot, HepG2 cells; assay type: cell-based, human; details: 5 μM, 24 h, vs 0.1% DMSO
Experimental: as §7, §8, §9, §10, §11

CN(C)Cc1ccc(S(=O)(=O)n2ccc(/C=C/C(=O)NO)c2)cc1 [resminostat, (E)-3-(1-(4-((dimethylamino)methyl)phenylsulfonyl)-1H-pyrrol-3-yl)-N-hydroxyacrylamide]
ZFP64 expression in several cancer cell lines (FIG. 4c) [1]: down-regulating effect
Expression level, MICALL1 ([2]; 2 h): 0.30
Expression level, MICALL1 ([2]; 5 h): 0.10
Expression level, HIST2H4A/B ([3]; 2 h): 2.59
Expression level, HIST2H4A/B ([3]; 5 h): 4.11
Expression level, DPP3 ([4]; 2 h): 0.57
Expression level, DPP3 ([4]; 5 h): 0.29
Expression level, 18s (housekeeping gene) ([5]; 2 h): 0.83
Expression level, 18s (housekeeping gene) ([5]; 5 h): 0.66
Expression level, CCDC43 ([6]; 2 h): 0.29
Expression level, CCDC43 ([6]; 5 h): 0.35
Expression level, ZFP64 ([7]; 2 h): 0.24
Expression level, ZFP64 ([7]; 5 h): 0.15
Expression level, TBP (housekeeping gene) ([8]; 2 h): 1.03
Expression level, TBP (housekeeping gene) ([8]; 5 h): 1.11
Expression level, GAPDH (housekeeping gene) ([9]; 2 h): 1.16
Expression level, GAPDH (housekeeping gene) ([9]; 5 h): 1.38
Expression level, KDELC2 ([10]; 2 h): 0.47
Expression level, KDELC2 ([10]; 5 h): 0.07
Histone H3 levels (nuclear loading control) [11]: essentially unaltered
Regulation of ZFP64, fold change (FIG. 4d) [12]: down-regulation
ZFP64 nuclear protein levels (Western Blot) [13]: diminished
